# In patent US11633459B2, “GIP derivatives and uses thereof” (priority 2018, dated 2023):
# *1 amine or outer side, *2 acyl side, *3 side chain or, on linkers, in order; H or OH if unused. Where a SMILES comes first, the peptide text is derived from it. Where no end group is shown, it is not given here. Side-chain parts run from the residue outwards. [ ]: non-standard residue; d: D form. The star is where a group is joined. X1 = O=C(O)CCCCCCCCCCCCCCCCCCC(=O)NCC1CCC(C(=O)*)CC1; C18 diacid = O=C(O)CCCCCCCCCCCCCCCCC(=O)*; γGlu = O=C(O)[C@H](CCC(=O)[*:2])N[*:1]; Nle = CCCC[C@H](N)C(=O)O; AEEA = NCCOCCOCC(=O)O; Aib = CC(C)(N)C(=O)O
# Columns and labels:
# [1] = biological target: T1, human GIP receptor (Homo sapiens, UniProt P48546); assay: In vitro potency, CRE luciferase reporter gene assay, whole BHK cells expressing human GIP receptor; type: cell-based; settings: 0.2% HSA
# T1 construct: expressed in transfected cells; host or cells: BHK cells (parent line BHKTS13), clone BHK CRE luc2P hGIPR clone #5
# T1 sequence (P48546 22-466): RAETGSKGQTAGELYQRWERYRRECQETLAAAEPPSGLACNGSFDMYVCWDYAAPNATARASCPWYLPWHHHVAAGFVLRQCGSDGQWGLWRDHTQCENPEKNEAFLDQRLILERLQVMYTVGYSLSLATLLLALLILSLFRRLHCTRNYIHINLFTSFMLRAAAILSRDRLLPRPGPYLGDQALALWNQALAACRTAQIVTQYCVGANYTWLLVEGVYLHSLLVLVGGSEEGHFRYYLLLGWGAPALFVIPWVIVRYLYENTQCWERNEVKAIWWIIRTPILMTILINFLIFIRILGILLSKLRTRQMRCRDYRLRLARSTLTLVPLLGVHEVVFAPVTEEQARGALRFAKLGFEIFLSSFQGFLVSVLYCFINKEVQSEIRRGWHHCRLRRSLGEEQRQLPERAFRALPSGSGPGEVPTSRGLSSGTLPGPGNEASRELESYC
# Experimental: (§1) In Vitro Potency (CRE Luciferase; Whole Cells)
# (§2) The in vitro potency is the measure of human GIP, GLP-1 or glucagon receptor activation, respectively, in a whole cell assay.
# (§3) In vitro potency was determined by measuring the response of the human GIP, GLP-1 or glucagon receptor in a reporter gene assay in individual cell lines. […] When the respective receptor is activated it results in the production of cAMP, which in turn results in the luciferase protein being expressed. When assay incubation is completed the luciferase substrate (luciferin) is added and the enzyme converts luciferin to oxyluciferin to produce bioluminescence. The luminescence is measured as the readout for the assay.
# (§4) The cells were derived from a clone containing the CRE luciferase element and were established by further transfection with the respective receptor to obtain the current clone.
# (§5) The cells were cultured at 5% CO2 in Cell Culture Medium. They were aliquoted and stored in liquid nitrogen. The cells were kept in passage and were seeded out the day before each assay.
# (§6) The Assay Buffer consisted of 1% ovalbumin and 0.1% Pluronic F-68 in Assay Medium with the addition of human serum albumin at twice the indicated concentrations.
# (§7) 1) Cells were plated at 5000 cells/well and incubated overnight.
# (§8) 2) Cells were washed three times in PBS.
# (§9) 3) Assay Medium (50 μl aliquot) with or without serum albumin was added to each well in the assay plate.
# (§10) 4) Stocks of the test compounds and reference compounds were diluted to a concentration of 0.2 μM in Assay Buffer. […] 8) The cells were washed three times with PBS plus some liquid in each well. 9) A 100 μl aliquot of steadylite plus reagent was added to each well of the assay plate (reagent was light sensitive). 10) Each assay plate was covered with aluminum foil to protect it from light and shaken for 30 min at room temperature. 11) Each assay plate was read in a microtiter plate reader. Calculations and Results
# The data from the microtiter plate reader was transferred to GraphPad Prism software. The software performs a non-linear regression (log(agonist) vs response).
# A minimum of two replicates was measured for each sample. The reported values are averages of the replicates.
# [2] = biological target: T2, human GLP-1 receptor (Homo sapiens, UniProt P43220); assay: In vitro potency, CRE luciferase reporter gene assay, whole BHK cells expressing human GLP-1 receptor; type: cell-based; settings: 0.2% HSA
# T2 construct: expressed in transfected cells; host or cells: BHK cells (parent line BHKTS13), clone BHK CRE luc2P hGLP-1R clone #6
# Experimental: as §1, §2, §3, §4, §5, §6, §7, §8, §9, §10
# (§11) The data from the microtiter plate reader was transferred to GraphPad Prism software. […]
# (§12) A minimum of two replicates was measured for each sample. […]
# [3] = biological target: T3, human glucagon receptor (Homo sapiens, UniProt P47871); assay: In vitro potency, CRE luciferase reporter gene assay, whole BHK cells expressing human glucagon receptor; type: cell-based; settings: 0.2% HSA
# T3 construct: expressed in transfected cells; host or cells: BHK cells (parent line BHKTS13), clone BHK CRE luc2P hGCGR clone #18
# Experimental: as §1, §2, §3, §4, §5, §6, §7, §8, §9, §10, §11, §12
# [4] = Pharmacokinetic study in minipigs, terminal half-life after i.v. administration; settings: female, Göttingen, minipig, plasma, iv, 5 nmol/kg
# Experimental: Pharmacokinetic Study in Minipigs
# The purpose of this study is to determine the half-life in vivo of the derivatives of the present invention after i.v. administration to minipigs, i.e. the prolongation of their time in the body and thereby their time of action. This is done in a pharmacokinetic (PK) study, where the terminal half-life of the derivative in question is determined. By terminal half-life is generally meant the period of time it takes to halve a certain plasma concentration, measured after the initial distribution phase.
# Female Göttingen minipigs were obtained from Ellegaard Göttingen Minipigs (Dalmose, Denmark) approximately 7-14 months of age and weighing from approximately 16-35 kg were used in the studies. The minipigs were housed individually and fed restrictedly once daily with SDS minipig diet (Special Diets Services, Essex, UK).
# After at 3 weeks of acclimatisation two permanent central venous catheters were implanted in vena cava caudalis in each animal. The animals were allowed 1 week recovery after the surgery, and were then used for repeated pharmacokinetic studies with a suitable wash-out period between successive derivative dosing.
# Blood samples (for example 0.8 ml) were collected in EDTA buffer (8 mM) and then centrifuged at 4° C. and 1942G for 10 minutes.
# Individual plasma concentration-time profiles were analysed by a non-compartmental model in Phoenix WinNonLin ver. […] (Pharsight Inc., Mountain View, Calif., USA), and the resulting terminal half-lives (harmonic mean) determined.
# T2 sequence (P43220 24-463): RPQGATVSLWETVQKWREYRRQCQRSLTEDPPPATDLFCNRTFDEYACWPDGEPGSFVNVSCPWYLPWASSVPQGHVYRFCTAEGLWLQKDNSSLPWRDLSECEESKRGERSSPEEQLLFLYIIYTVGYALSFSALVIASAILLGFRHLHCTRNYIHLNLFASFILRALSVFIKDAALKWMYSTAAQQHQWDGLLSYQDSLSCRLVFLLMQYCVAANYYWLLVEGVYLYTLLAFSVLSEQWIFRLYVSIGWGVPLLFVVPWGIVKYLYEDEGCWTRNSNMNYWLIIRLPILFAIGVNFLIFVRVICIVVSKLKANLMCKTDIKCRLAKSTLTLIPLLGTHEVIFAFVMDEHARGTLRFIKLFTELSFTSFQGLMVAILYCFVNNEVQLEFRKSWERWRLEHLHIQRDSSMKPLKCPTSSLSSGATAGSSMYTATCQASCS
# T3 sequence (P47871 26-477): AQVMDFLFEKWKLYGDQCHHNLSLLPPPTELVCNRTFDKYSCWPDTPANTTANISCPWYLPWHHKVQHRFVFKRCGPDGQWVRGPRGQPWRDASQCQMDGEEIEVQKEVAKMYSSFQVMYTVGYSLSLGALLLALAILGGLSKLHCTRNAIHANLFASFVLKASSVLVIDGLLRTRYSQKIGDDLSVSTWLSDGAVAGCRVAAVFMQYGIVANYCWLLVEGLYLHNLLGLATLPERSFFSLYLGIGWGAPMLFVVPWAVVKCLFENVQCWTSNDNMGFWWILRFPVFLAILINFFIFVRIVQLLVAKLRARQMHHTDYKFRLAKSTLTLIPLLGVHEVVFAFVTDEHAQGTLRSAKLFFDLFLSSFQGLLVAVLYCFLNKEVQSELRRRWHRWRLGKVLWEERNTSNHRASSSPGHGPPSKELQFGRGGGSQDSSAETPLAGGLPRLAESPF
Compound,EC50 [1] [nM],EC50 [2] [nM],EC50 [3] [nM],half-life [4] [h]
"CCCC[C@H](NC(=O)[C@H](C)NC(=O)[C@@H](NC(=O)[C@H](CO)NC(=O)[C@H](Cc1ccc(O)cc1)NC(=O)[C@H](CC(=O)O)NC(=O)[C@H](CO)NC(=O)[C@@H](NC(=O)[C@H](Cc1ccccc1)NC(=O)[C@@H](NC(=O)CNC(=O)[C@H](CCC(=O)O)NC(=O)C(C)(C)NC(=O)[C@@H](N)Cc1ccc(O)cc1)[C@@H](C)O)[C@@H](C)CC)[C@@H](C)CC)C(=O)N[C@@H](CC(=O)O)C(=O)N[C@@H](CCCCN)C(=O)N[C@H](C(=O)N[C@@H](CCCNC(=N)N)C(=O)N[C@@H](CCC(N)=O)C(=O)N[C@@H](CCC(N)=O)C(=O)N[C@@H](CC(=O)O)C(=O)N[C@@H](Cc1ccccc1)C(=O)N[C@H](C(=O)N[C@@H](CCCCNC(=O)CC[C@H](NC(=O)CC[C@H](NC(=O)CC[C@H](NC(=O)C1CCC(CNC(=O)CCCCCCCCCCCCCCCCCCC(=O)O)CC1)C(=O)O)C(=O)O)C(=O)O)C(=O)N[C@@H](Cc1c[nH]c2ccccc12)C(=O)N[C@@H](CC(C)C)C(=O)N[C@@H](CC(C)C)C(=O)N[C@@H](C)C(=O)N[C@@H](CCC(N)=O)C(=O)N[C@@H](CCCCN)C(=O)NCC(=O)O)C(C)C)[C@@H](C)CC (stereo partly drawn) [Compound 4, N{Epsilon-24}-[(4S)-4-carboxy-4-[[(4S)-4-carboxy-4-[[(4S)-4-carboxy-4-[[4-[(19-carboxynonadecanoylamino)methyl]cyclohexanecarbonyl]amino]butanoyl]amino]butanoyl]amino]butanoyl]-[Aib2,Nle14,Arg18,Lys24]-hGIP(1-31)]",0.0721,,,124
"CCCC[C@H](NC(=O)[C@H](C)NC(=O)[C@@H](NC(=O)[C@H](CO)NC(=O)[C@H](Cc1ccc(O)cc1)NC(=O)[C@H](CC(=O)O)NC(=O)[C@H](CO)NC(=O)[C@@H](NC(=O)[C@H](Cc1ccccc1)NC(=O)[C@@H](NC(=O)CNC(=O)[C@H](CCC(=O)O)NC(=O)C(C)(C)NC(=O)[C@@H](N)Cc1ccc(O)cc1)[C@@H](C)O)[C@@H](C)CC)[C@@H](C)CC)C(=O)N[C@@H](CC(=O)O)C(=O)N[C@@H](CCCCN)C(=O)N[C@H](C(=O)N[C@@H](CCCNC(=N)N)C(=O)N[C@@H](CCC(N)=O)C(=O)NC(C)(C)C(=O)N[C@@H](CC(=O)O)C(=O)N[C@@H](Cc1ccccc1)C(=O)N[C@H](C(=O)N[C@@H](CCCCNC(=O)CC[C@H](NC(=O)CC[C@H](NC(=O)CC[C@H](NC(=O)C1CCC(CNC(=O)CCCCCCCCCCCCCCCCCCC(=O)O)CC1)C(=O)O)C(=O)O)C(=O)O)C(=O)N[C@@H](Cc1c[nH]c2ccccc12)C(=O)N[C@@H](CC(C)C)C(=O)N[C@@H](CC(C)C)C(=O)N[C@@H](C)C(=O)N[C@@H](CCC(N)=O)C(=O)N[C@@H](CCCCN)C(=O)NCC(=O)O)C(C)C)[C@@H](C)CC (stereo partly drawn) [Compound 12, N{Epsilon-24}-[(4S)-4-carboxy-4-[[(4S)-4-carboxy-4-[[(4S)-4-carboxy-4-[[4-[(19-carboxynonadecanoylamino)methyl]cyclohexanecarbonyl]amino]butanoyl]amino]-butanoyl]amino]butanoyl]-[Aib2,Nle14,Arg18,Aib20,Lys24]-hGIP(1-31)] (H-Y[Aib]EGTFISDYSIA[Nle]DKIRQ[Aib]DFVK([γGlu-γGlu-γGlu-X1])WLLAQKG-OH)",0.0712,,,132

# These reach a lower EC50 [1]. Values come first.
EC50 [1] [nM],EC50 [2] [nM],EC50 [3] [nM],half-life [4] [h],Compound
0.0447,,,96,"CCCC[C@H](NC(=O)[C@H](C)NC(=O)[C@@H](NC(=O)[C@H](CO)NC(=O)[C@H](Cc1ccc(O)cc1)NC(=O)[C@H](CC(=O)O)NC(=O)[C@H](CO)NC(=O)[C@@H](NC(=O)[C@H](Cc1ccccc1)NC(=O)[C@@H](NC(=O)CNC(=O)[C@H](CCC(=O)O)NC(=O)C(C)(C)NC(=O)[C@@H](N)Cc1ccc(O)cc1)[C@@H](C)O)[C@@H](C)CC)[C@@H](C)CC)C(=O)N[C@@H](CC(=O)O)C(=O)N[C@@H](CCCCN)C(=O)N[C@H](C(=O)N[C@@H](CCCNC(=N)N)C(=O)N[C@@H](CCC(N)=O)C(=O)N[C@@H](CCC(N)=O)C(=O)N[C@@H](CC(=O)O)C(=O)N[C@@H](Cc1ccccc1)C(=O)N[C@H](C(=O)N[C@@H](CCCCNC(=O)COCCOCCNC(=O)COCCOCCNC(=O)CC[C@H](NC(=O)C1CCC(CNC(=O)CCCCCCCCCCCCCCCCCCC(=O)O)CC1)C(=O)O)C(=O)N[C@@H](Cc1c[nH]c2ccccc12)C(=O)N[C@@H](CC(C)C)C(=O)N[C@@H](CC(C)C)C(=O)N[C@@H](C)C(=O)N[C@@H](CCC(N)=O)C(=O)N[C@@H](CCCCN)C(=O)NCC(=O)O)C(C)C)[C@@H](C)CC (stereo partly drawn) [Compound 3, N{Epsilon-24}-[2-[2-[2-[[2-[2-[2-[[(4S)-4-carboxy-4-[[4-[(19-carboxynonadecanoylamino)methyl]cyclohexanecarbonyl]amino]butanoyl]amino]ethoxy]ethoxy]acetyl]amino]ethoxy]ethoxy]acetyl]-[Aib2,Nle14,Arg18,Lys24]-hGIP(1-31)]"
0.009,> 100,> 100,,"H-Y[Aib]EGTFISDYSIA[Nle]DKIHQQDFVK([γGlu-γGlu-γGlu-C18 diacid])WLLAQKGKEEDWKHNITQ [Compound 38, N{Epsilon-24}-[(4S)-4-carboxy-4-[[(4S)-4-carboxy-4-[[(4S)-4-carboxy-4-(17-carboxyheptadecanoylamino)butanoyl]amino]butanoyl]amino]butanoyl]-[Aib2,Nle14,Lys24,Glu33,Glu34]-hGIP]"
0.00597,> 100,> 100,,"Y[Aib]EGTFISDYSIA[Nle]DKIHQQDFVK([AEEA-AEEA-γGlu-C18 diacid])WLLAQKGKEDDWKHNITQ [Compound 36, N{Epsilon-24}-[2-[2-[2-[[2-[2-[2-[[(4S)-4-carboxy-4-(17-carboxyheptadecanoylamino)butanoyl]amino]ethoxy]ethoxy]acetyl]amino]ethoxy]ethoxy]acetyl]-[Aib2,Nle14,Lys24,Glu33,Asp34]-hGIP]"
0.0059,> 100,> 100,,"H-Y[Aib]EGTFISDYSIA[Nle]DKIHQQDFVK([γGlu-γGlu-γGlu-C18 diacid])WLLAQKGKEDDWKHNITQ [Compound 39, N{Epsilon-24}-[(4S)-4-carboxy-4-[[(4S)-4-carboxy-4-[[(4S)-4-carboxy-4-(17-carboxyheptadecanoylamino)butanoyl]amino]butanoyl]amino]butanoyl]-[Aib2,Nle14,Lys24,Glu33,Asp34]-hGIP]"
